These results are taken from ChEMBL document CHEMBL2086259, “13,28-Epoxy triterpenoid saponins from Ardisia japonica selectively inhibit proliferation of liver cancer cells without affecting normal liver cells” (Bioorg Med Chem Lett, 2012).

The subject of one assay is Bel-7402. As to the kind of experiment: Cytotoxicity against human Bel7402 cells after 72 hrs by MTT assay. Type of assay: functional, cell-based. The note with it: Bel-7402, 72 h. Background: Formazan colour is commonly taken as a measure of viable cells.
Assay [1] in a line: Cytotoxicity against human HL-7702 cells after 72 hrs by MTT assay. The class given is cell-based. The note with it: L02, 72 h.
The test system of a further assay is HepG2. Briefly: Cytotoxicity against human HepG2 cells after 72 hrs by MTT assay. The class given is functional, cell-based. The note with it: HepG2, 72 h.

The structures appear in SMILES notation.

Take `CC1(C)CC[C@]23CO[C@@]4(CC[C@@H]5[C@@]6(C)CC[C@H](O[C@@H]7OC[C@H](O[C@@H]8O[C@H](CO)[C@@H](O)[C@H](O)[C@H]8O)[C@H](O)[C@H]7O[C@@H]7O[C@H](CO)[C@@H](O)[C@H](O)[C@H]7O)C(C)(C)[C@@H]6CC[C@@]5(C)[C@]4(C)C[C@H]2O)[C@@H]3C1`: the results for the concentration for half-maximal inhibition (IC50) (in the assay on Bel-7402; in assay [1]; with HepG2) were 4.18 µM, above 100 µM and 14.4 µM, respectively.

`C[C@@H]1O[C@@H](O[C@H]2[C@H](O[C@H]3CO[C@@H](O[C@H]4CC[C@]5(C)[C@H]6CC[C@]78OC[C@@]9(CC[C@](C)(C(=O)O)C[C@H]97)C(=O)C[C@@]8(C)[C@]6(C)CC[C@H]5C4(C)C)[C@H](O[C@@H]4O[C@H](CO)[C@@H](O)[C@H](O)[C@H]4O)[C@H]3O)O[C@H](CO)[C@@H](O)[C@@H]2O)[C@H](O)[C@H](O)[C@H]1O`: the IC50 (in the assay on Bel-7402; in assay [1]; with HepG2) was above 100 µM each time.

As for `COC(OC)[C@@]1(C)CC[C@]23CO[C@@]4(CC[C@@H]5[C@@]6(C)CC[C@H](O[C@@H]7OC[C@H](O[C@@H]8O[C@H](CO)[C@@H](O)[C@H](O)[C@H]8O[C@@H]8O[C@@H](C)[C@H](O)[C@@H](O)[C@H]8O)[C@H](O)[C@H]7O)C(C)(C)[C@@H]6CC[C@@]5(C)[C@]4(C)C[C@H]2O)[C@@H]3C1`, the IC50 (with Bel-7402; in assay [1]; in the assay with HepG2) was above 100 µM throughout.

With `C[C@@H]1O[C@@H](O[C@H]2[C@H](O[C@H]3CO[C@@H](O[C@H]4CC[C@]5(C)[C@H]6CC=C7[C@@H]8C[C@@](C)(C(=O)O)CC[C@]8(CO)[C@H](O)C[C@@]7(C)[C@]6(C)CC[C@H]5C4(C)C)[C@H](O[C@@H]4O[C@H](CO)[C@@H](O)[C@H](O)[C@H]4O)[C@H]3O)O[C@H](CO)[C@@H](O)[C@@H]2O)[C@H](O)[C@H](O)[C@H]1O`, the IC50 (in the assay with Bel-7402; in assay [1]; in the assay on HepG2) was above 100 µM each time.

As for `C[C@@H]1O[C@@H](O[C@H]2[C@H](O[C@H]3CO[C@@H](O[C@H]4CC[C@]5(C)[C@H]6CC[C@]78OC[C@@]9(CC[C@](C)(C=O)C[C@H]97)[C@H](O)C[C@@]8(C)[C@]6(C)CC[C@H]5C4(C)C)[C@H](O[C@@H]4O[C@H](CO)[C@@H](O)[C@H](O)[C@H]4O)[C@H]3O)O[C@H](CO)[C@@H](O)[C@@H]2O)[C@H](O)[C@H](O)[C@H]1O` [ARDISIACRISPIN B], the values for the half-maximal inhibitory concentration (IC50) (with Bel-7402; in assay [1]; with HepG2) were 4.46 µM, above 100 µM and 21 µM, respectively.

With `C[C@@H]1O[C@@H](O[C@H]2[C@H](O[C@H]3CO[C@@H](O[C@H]4CC[C@]5(C)[C@H]6CC=C7[C@@H]8C[C@@](C)(CO)CC[C@]8(CO)[C@H](O)C[C@@]7(C)[C@]6(C)CC[C@H]5C4(C)C)[C@H](O[C@@H]4O[C@H](CO)[C@@H](O)[C@H](O)[C@H]4O)[C@H]3O)O[C@H](CO)[C@@H](O)[C@@H]2O)[C@H](O)[C@H](O)[C@H]1O` [ARDISIAMAMILLOSEDE C], the IC50 (with Bel-7402; in assay [1]; in the assay on HepG2) was above 100 µM each time.

For the compound `C[C@@H]1O[C@@H](O[C@H]2[C@H](O[C@H]3CO[C@@H](O[C@H]4CC[C@]5(C)[C@H]6CC[C@]78OC[C@@]9(CC[C@](C)(C=O)C[C@H]97)C(=O)C[C@@]8(C)[C@]6(C)CC[C@H]5C4(C)C)[C@H](O)[C@H]3O)O[C@H](CO)[C@@H](O)[C@@H]2O)[C@H](O)[C@H](O)[C@H]1O` [ARDISIAMAMILLOSIDE H], the IC50 (in the assay with Bel-7402; in assay [1]; with HepG2) was above 100 µM in each case.

Turning to `C[C@@H]1O[C@@H](O[C@H]2[C@H](O[C@H]3CO[C@@H](O[C@H]4CC[C@]5(C)[C@H]6CC[C@]78OC[C@@]9(CCC(C)(C)C[C@H]97)[C@H](O)C[C@@]8(C)[C@]6(C)CC[C@H]5C4(C)C)[C@H](O)[C@H]3O)O[C@H](CO)[C@@H](O)[C@@H]2O)[C@H](O)[C@H](O)[C@H]1O` [ARDISIANOSIDE C], the values for the IC50 (in the assay on Bel-7402; in assay [1]; with HepG2) were 4.14 µM, above 100 µM and 13.6 µM, respectively.

Take `CC1(C)CC[C@]23CO[C@@]4(CC[C@@H]5[C@@]6(C)CC[C@H](O[C@@H]7OC[C@H](O[C@@H]8O[C@H](CO)[C@@H](O)[C@H](O)[C@H]8O[C@@H]8OC[C@@H](O)[C@H](O)[C@H]8O)[C@H](O)[C@H]7O)C(C)(C)[C@@H]6CC[C@@]5(C)[C@]4(C)C[C@H]2O)[C@@H]3C1` [ARDISIANOSIDE D]: the IC50 (commonly the concentration at which inhibition is half-maximal) with Bel-7402 was 14.8 µM; in assay [1], above 100 µM; with HepG2, 31.2 µM.

Consider `C[C@@H]1O[C@@H](O[C@H]2[C@H](O[C@H]3CO[C@@H](O[C@H]4CC[C@]5(C)[C@H]6CC[C@]78OC[C@@]9(CC[C@](C)(O)C[C@H]97)[C@H](O)C[C@@]8(C)[C@]6(C)CC[C@H]5C4(C)C)[C@H](O[C@@H]4O[C@H](CO)[C@@H](O)[C@H](O)[C@H]4O)[C@H]3O)O[C@H](CO)[C@@H](O)[C@@H]2O)[C@H](O)[C@H](O)[C@H]1O` [ARDISIANOSIDE G], for which the IC50 (in the assay with Bel-7402; in assay [1]; in the assay on HepG2) was above 100 µM in each case.

In the case of `CC1(C)CC[C@]23C(=O)O[C@@]4(CC[C@@H]5[C@@]6(C)CC[C@H](O[C@@H]7OC[C@H](O[C@@H]8O[C@H](CO)[C@@H](O)[C@H](O[C@@H]9O[C@H](CO)[C@@H](O[C@@H]%10O[C@H](CO)[C@@H](O)[C@H](O)[C@H]%10O)[C@H](O[C@@H]%10O[C@H](CO)[C@@H](O)[C@H](O)[C@H]%10O)[C@H]9O)[C@H]8O[C@@H]8OC[C@@H](O)[C@H](O)[C@H]8O)[C@H](O)[C@H]7O[C@@H]7O[C@H](CO)[C@@H](O)[C@H](O)[C@H]7O)C(C)(C)[C@@H]6CC[C@@]5(C)[C@]4(C)C[C@H]2O)[C@@H]3C1` [ARDISIANOSIDE H], the IC50 (with Bel-7402; in assay [1]; in the assay on HepG2) was above 100 µM in each case.

Regarding `C[C@@H]1O[C@@H](O[C@H]2[C@H](O[C@H]3CO[C@@H](O[C@H]4CC[C@]5(C)[C@H]6CC[C@]78OC(=O)[C@@]9(CC[C@](C)(CO)C[C@H]97)[C@H](O)C[C@@]8(C)[C@]6(C)CC[C@H]5C4(C)C)[C@H](O[C@@H]4O[C@H](CO)[C@@H](O)[C@H](O)[C@H]4O)[C@H]3O)O[C@H](CO)[C@@H](O)[C@@H]2O)[C@H](O)[C@H](O)[C@H]1O` [ARDISIANOSIDE I], the IC50 (in the assay with Bel-7402; in assay [1]; with HepG2) was above 100 µM in each case.

As to `C[C@@H]1O[C@@H](O[C@H]2[C@H](O[C@H]3CO[C@@H](O[C@H]4CC[C@]5(C)[C@H]6CC=C7[C@@H]8C[C@@](C)(CO)CC[C@]8(CO)[C@@H]8O[C@@H]8[C@@]7(C)[C@]6(C)CC[C@H]5C4(C)C)[C@H](O[C@@H]4O[C@H](CO)[C@@H](O)[C@H](O)[C@H]4O)[C@H]3O)O[C@H](CO)[C@@H](O)[C@@H]2O)[C@H](O)[C@H](O)[C@H]1O` [ARDISIANOSIDE K], the IC50 (in the assay with Bel-7402; in assay [1]; in the assay on HepG2) was above 100 µM in each case.

With `CC1(C)CC[C@]23CO[C@@]4(CC[C@@H]5[C@@]6(C)CC[C@H](O[C@@H]7OC[C@H](O[C@@H]8O[C@H](CO)[C@@H](O)[C@H](O[C@@H]9O[C@H](CO)[C@@H](O[C@@H]%10O[C@H](CO)[C@@H](O)[C@H](O)[C@H]%10O)[C@H](O[C@@H]%10O[C@H](CO)[C@@H](O)[C@H](O)[C@H]%10O)[C@H]9O)[C@H]8O[C@@H]8OC[C@@H](O)[C@H](O)[C@H]8O)[C@H](O)[C@H]7O[C@@H]7O[C@H](CO)[C@@H](O)[C@H](O)[C@H]7O)C(C)(C)[C@@H]6CC[C@@]5(C)[C@]4(C)C[C@H]2O)[C@@H]3C1` [ARDISIANOSIDES A], the IC50 is 1.37 µM with Bel-7402, above 100 µM in assay [1] and 3.83 µM in the assay with HepG2.

Take `C[C@@H]1O[C@@H](O[C@H]2[C@H](O[C@H]3CO[C@@H](O[C@H]4CC[C@]5(C)[C@H]6CC[C@]78OC[C@@]9(CC[C@](C)(CO)C[C@H]97)[C@H](O)C[C@@]8(C)[C@]6(C)CC[C@H]5C4(C)C)[C@H](O[C@@H]4O[C@H](CO)[C@@H](O)[C@H](O)[C@H]4O)[C@H]3O)O[C@H](CO)[C@@H](O)[C@@H]2O)[C@H](O)[C@H](O)[C@H]1O` [ARDISICRENOSIDE A]: the 50% inhibitory concentration (IC50) (in the assay on Bel-7402; in assay [1]; in the assay on HepG2) was above 100 µM throughout.

Turning to `CC1(C)[C@@H](O[C@@H]2OC[C@H](O[C@@H]3O[C@H](CO)[C@@H](O)[C@H](O[C@@H]4O[C@H](CO)[C@@H](O)[C@H](O)[C@H]4O)[C@H]3O[C@@H]3OC[C@@H](O)[C@H](O)[C@H]3O)[C@H](O)[C@H]2O[C@@H]2O[C@H](CO)[C@@H](O)[C@H](O)[C@H]2O)CC[C@]2(C)[C@H]3CC[C@]45OC[C@@]6(CC[C@](C)(C=O)C[C@H]64)[C@H](O)C[C@@]5(C)[C@]3(C)CC[C@@H]12` [CYCLAMIN], the figures for the IC50 (with Bel-7402; in assay [1]; in the assay on HepG2) were 3.85 µM, above 100 µM and 12.2 µM, respectively.

As to `C[C@@H]1O[C@@H](O[C@H]2[C@H](O[C@H]3CO[C@@H](O[C@H]4CC[C@]5(C)[C@H]6CC[C@]78OC[C@@]9(CC[C@](C)(C=O)C[C@H]97)[C@H](O)C[C@@]8(C)[C@]6(C)CC[C@H]5C4(C)C)[C@H](O)[C@H]3O)O[C@H](CO)[C@@H](O)[C@@H]2O)[C@H](O)[C@H](O)[C@H]1O` [CYCLAMIRETIN A], the IC50 (with Bel-7402; in assay [1]; in the assay on HepG2) was above 100 µM each time.

With `CC1(C)[C@@H](O[C@@H]2OC[C@H](O[C@@H]3O[C@H](CO)[C@@H](O)[C@H](O)[C@H]3O[C@@H]3OC[C@@H](O)[C@H](O)[C@H]3O)[C@H](O)[C@H]2O)CC[C@]2(C)[C@H]3CC[C@]45OC[C@@]6(CC[C@](C)(C=O)C[C@H]64)[C@H](O)C[C@@]5(C)[C@]3(C)CC[C@@H]12` [PRIMULANIN], the IC50 in the assay on Bel-7402 is 4.05 µM; in assay [1] it was above 100 µM; in the assay with HepG2, above 100 µM.
